# In PubChem BioAssay (NCI):
#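 Briefly, cells in 96-well plates were exposed to five compound concentrations for 48 h, and endpoints were estimated by linear interpolation. TGI marks complete inhibition of growth.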
# Columns and labels:
# Assay in all cases: growth of human tumour cells (NCI), 48 h
# NCI/ADR-RES ovarian = test system: NCI/ADR-RES ovarian
# SK-MEL-5 melanoma = test system: SK-MEL-5 melanoma
# A498 renal = test system: A498 renal
# HS 578T breast = test system: HS 578T breast
# OVCAR-8 ovarian = test system: OVCAR-8 ovarian
# NCI-H226 lung = test system: NCI-H226 lung
# HL-60(TB) leukemia = test system: HL-60(TB) leukemia
# SN12C renal = test system: SN12C renal
# 786-0 renal = test system: 786-0 renal
# HT29 colon = test system: HT29 colon
# EKVX NSCLC = test system: EKVX NSCLC
# HCC-2998 colon = test system: HCC-2998 colon
# SNB-75 CNS = test system: SNB-75 CNS
# OVCAR-4 ovarian = test system: OVCAR-4 ovarian
# MOLT-4 leukemia = test system: MOLT-4 leukemia
Structure (SMILES),TGI (NCI/ADR-RES ovarian),TGI (SK-MEL-5 melanoma),TGI (A498 renal),TGI (HS 578T breast),TGI (OVCAR-8 ovarian),TGI (NCI-H226 lung),TGI (HL-60(TB) leukemia),TGI (SN12C renal),TGI (786-0 renal),TGI (HT29 colon),TGI (EKVX NSCLC),TGI (HCC-2998 colon),TGI (SNB-75 CNS),TGI (OVCAR-4 ovarian),TGI (MOLT-4 leukemia)
CC1(c2ccccc2)O[C@@H]2C[C@H]3[C@@H]4CCC5=CC(=O)C=C[C@]5(C)[C@@]4(F)[C@@H](O)C[C@]3(C)[C@]2(C(=O)CO)O1 (stereo partly specified),36 µM,28.2 µM,33.9 µM,45.4 µM,41.7 µM,31 µM,39.4 µM,26.1 µM,32.2 µM,32.4 µM,30.4 µM,33.3 µM,44.8 µM,28.3 µM,
[N-]=[N+]=NC1C(O)C(CO)OC1n1ccc(N)nc1=O (stereo unspecified),> 625 µM,> 625 µM,> 625 µM,> 625 µM,> 625 µM,> 625 µM,25.3 µM,615 µM,> 625 µM,> 625 µM,> 625 µM,> 581 µM,> 625 µM,> 625 µM,> 174 µM
C=C(Cl)/C(=C\Cl)CCC(Cl)C(C)C (stereo unspecified) (tested in a mixture with another compound),84.4 µM,27.6 µM,34.6 µM,31.9 µM,,47.9 µM,> 100 µM,31.3 µM,29.5 µM,36.8 µM,33.3 µM,32.7 µM,32.5 µM,31.2 µM,> 100 µM
CCCCCCCCOC(=O)C12Oc3ccc(-c4ccc5c(c4O)C(O)=C4C(=O)CC(C)C(O)C4(C(=O)OCCCCCCCC)O5)c(O)c3C(O)=C1C(=O)CC(C)C2O (stereo unspecified),> 100 µM,48.7 µM,> 100 µM,> 100 µM,35 µM,> 100 µM,9.61 µM,> 100 µM,> 100 µM,> 100 µM,> 100 µM,> 100 µM,25.5 µM,> 100 µM,60.6 µM
CC(=O)OCC1(C)C(O)CCC2(C)C1CCC1CC3CC12CCC3(O)CO (stereo unspecified),> 100 µM,> 100 µM,8.59 µM,> 100 µM,> 100 µM,> 100 µM,> 100 µM,> 100 µM,> 100 µM,> 100 µM,> 100 µM,> 100 µM,> 100 µM,> 100 µM,> 100 µM
CSc1c(C#N)c(=O)n(N)c2c1c(C)nn2-c1ccccc1,62.9 µM,28.7 µM,65.8 µM,> 100 µM,54 µM,70 µM,94.5 µM,> 100 µM,> 100 µM,65.4 µM,78 µM,> 100 µM,85.4 µM,96.1 µM,85.1 µM
C=C1N(S(=O)(=O)c2ccc(C)cc2)C(=O)OCC12CCCC2,> 100 µM,94.6 µM,> 100 µM,> 100 µM,> 100 µM,> 100 µM,> 100 µM,,> 100 µM,> 100 µM,> 100 µM,> 100 µM,62.6 µM,> 100 µM,> 100 µM
CC1=NN(c2ccc(S(=O)(=O)O)cc2)C2(C1)C(Cl)C(=O)N2c1nc2ccccc2s1 (stereo unspecified),> 100 µM,> 100 µM,> 100 µM,> 100 µM,> 100 µM,> 100 µM,> 100 µM,> 100 µM,> 100 µM,> 100 µM,> 100 µM,> 100 µM,> 100 µM,> 100 µM,> 100 µM
CCN(CC)CCNc1ccc2ncn3c4ccc(OC)cc4c(=O)c1c23,16.1 µM,20 µM,21.5 µM,30.4 µM,11.8 µM,13.7 µM,18.7 µM,18.3 µM,15.5 µM,8.14 µM,29.2 µM,13.7 µM,20.8 µM,8.89 µM,11 µM
Cc1ccc2[nH]c3c(c(=O)n(C)c(=O)n3C)c2c1,> 100 µM,> 100 µM,> 100 µM,> 100 µM,> 100 µM,> 100 µM,> 100 µM,> 100 µM,> 100 µM,> 100 µM,> 100 µM,> 100 µM,> 100 µM,> 100 µM,> 100 µM
O=S1SC(=S)C2C=CC=NC21 (stereo unspecified),67.5 µM,53.2 µM,66.1 µM,61.4 µM,79 µM,56.4 µM,> 100 µM,28.8 µM,27.6 µM,30.8 µM,26.1 µM,28.8 µM,34.9 µM,> 100 µM,64.9 µM
COc1ccc(N2C(=O)C(Cl)C2c2cc3cc(Br)ccc3nc2Cl)cc1 (stereo unspecified),14.1 µM,8.63 µM,> 25 µM,> 25 µM,> 25 µM,13.2 µM,14.5 µM,12.3 µM,18.5 µM,8.84 µM,9.86 µM,7.52 µM,> 25 µM,9.68 µM,11.9 µM
N#Cc1c(Cl)cc(C#N)n2c1nc1ccccc12,42.4 µM,29.3 µM,49.9 µM,83.7 µM,21 µM,71 µM,3.03 µM,38.6 µM,7.08 µM,21.4 µM,39.5 µM,40.9 µM,38.7 µM,41.9 µM,5.4 µM
Cn1c(=O)c2ccccc2[n+]2c(-c3cccc([N+](=O)[O-])c3)csc12,83.5 µM,> 100 µM,> 100 µM,83.3 µM,> 100 µM,> 100 µM,62.8 µM,> 100 µM,> 100 µM,> 100 µM,> 100 µM,> 100 µM,82.2 µM,> 100 µM,> 100 µM
CCCC(=O)OCC1OC(n2cc(F)c(=O)[nH]c2=O)CC1O (stereo unspecified),> 10 µM,1.35 µM,> 9.04 µM,> 10 µM,> 10 µM,> 10 µM,> 10 µM,> 10 µM,> 10 µM,> 10 µM,> 10 µM,> 2.97 µM,9.55 µM,> 10 µM,> 10 µM
Cn1nnc2c(C(N)=S)ncn2c1=O,> 100 µM,> 100 µM,> 100 µM,> 100 µM,> 100 µM,> 100 µM,> 100 µM,> 100 µM,> 100 µM,> 100 µM,> 100 µM,> 100 µM,> 100 µM,> 100 µM,> 100 µM

Structure (SMILES),TGI (NCI/ADR-RES ovarian),TGI (SK-MEL-5 melanoma),TGI (A498 renal),TGI (HS 578T breast),TGI (OVCAR-8 ovarian),TGI (NCI-H226 lung),TGI (HL-60(TB) leukemia),TGI (SN12C renal),TGI (786-0 renal),TGI (HT29 colon),TGI (EKVX NSCLC),TGI (HCC-2998 colon),TGI (SNB-75 CNS),TGI (OVCAR-4 ovarian),TGI (MOLT-4 leukemia)
COC(=O)[C@@H]1C[C@@H](O)CN1C(=O)c1ccc([N+](=O)[O-])cc1[N+](=O)[O-],> 100 µM,> 100 µM,> 100 µM,> 100 µM,> 100 µM,> 100 µM,> 100 µM,> 100 µM,> 100 µM,> 100 µM,> 100 µM,> 100 µM,> 100 µM,> 100 µM,> 100 µM
C=C1CN=C(Nc2ccc(Cl)cc2)S1,> 100 µM,> 100 µM,> 100 µM,> 100 µM,> 100 µM,,> 10 µM,> 100 µM,> 100 µM,> 100 µM,> 100 µM,> 100 µM,> 100 µM,> 100 µM,> 10 µM
C/C(=C\COP(=O)(O)OP(=O)(O)O)CCCCCCOCc1ccccc1,> 100 µM,> 100 µM,> 100 µM,> 100 µM,> 100 µM,> 100 µM,> 100 µM,> 100 µM,> 100 µM,> 100 µM,> 100 µM,> 100 µM,> 100 µM,> 100 µM,> 100 µM
Cc1c(C(=O)c2ccccc2)[n+](=O)c2cc(Cl)c(Cl)cc2n1[O-],38 µM,28.6 µM,33.8 µM,31.2 µM,23.2 µM,7.59 µM,4.82 µM,30.5 µM,29.3 µM,28.7 µM,26.3 µM,2.9 µM,15.8 µM,16.5 µM,12.2 µM
CSC1=NN(C(C)=O)C(C(OC(C)=O)C(OC(C)=O)C(OC(C)=O)C(COC(C)=O)OC(C)=O)S1 (stereo unspecified),> 100 µM,> 100 µM,> 100 µM,> 100 µM,> 100 µM,> 100 µM,> 100 µM,> 100 µM,> 100 µM,> 100 µM,> 100 µM,> 100 µM,> 100 µM,> 100 µM,> 100 µM
CC(=O)Nc1cc(Cl)cc(Cl)c1O,> 100 µM,> 100 µM,> 100 µM,> 100 µM,> 100 µM,> 100 µM,> 100 µM,> 100 µM,> 100 µM,> 100 µM,> 100 µM,> 100 µM,> 100 µM,> 100 µM,> 100 µM
O=C1Nc2ccc(Br)cc2/C1=N/S(=O)(=O)O,> 100 µM,29.6 µM,> 100 µM,> 100 µM,> 100 µM,> 100 µM,46.7 µM,37 µM,68.2 µM,> 100 µM,85.7 µM,> 100 µM,> 100 µM,44.1 µM,63.4 µM
COC(=O)c1cc(CC2Cc3cc4c(cc3C2=O)CCC4)cc2c1CCC2 (stereo unspecified),> 100 µM,,> 100 µM,> 100 µM,> 100 µM,> 100 µM,> 100 µM,> 100 µM,> 100 µM,> 100 µM,> 100 µM,> 100 µM,> 100 µM,> 100 µM,> 100 µM
O=C1C=C(c2ccccc2)OC1C1Sc2ccccc2NC1=O (stereo unspecified),> 80.9 µM,38.2 µM,> 31.5 µM,> 100 µM,> 46.4 µM,> 83.3 µM,13.6 µM,68.8 µM,> 66.3 µM,> 100 µM,> 100 µM,> 31.3 µM,50.3 µM,> 100 µM,> 40.1 µM
O=c1[nH]c(=O)c2c([nH]1)[nH]c1ccc(Br)cc12,> 100 µM,> 100 µM,> 100 µM,> 100 µM,> 100 µM,> 100 µM,> 100 µM,> 100 µM,> 100 µM,> 100 µM,> 100 µM,> 100 µM,> 100 µM,,
COCn1cc(C2=C(C)C(=O)C(C)=C(C)C2=O)cn1,59.3 µM,> 100 µM,> 100 µM,> 100 µM,36.8 µM,> 100 µM,24.3 µM,> 100 µM,32.2 µM,> 100 µM,32.5 µM,> 100 µM,> 100 µM,31.7 µM,42 µM
c1ccc2sc(SSSc3nc4ccccc4s3)nc2c1,> 100 µM,> 100 µM,> 100 µM,> 100 µM,> 100 µM,> 100 µM,> 100 µM,> 100 µM,> 100 µM,> 100 µM,> 100 µM,> 100 µM,> 100 µM,> 100 µM,> 100 µM
C=C1c2nc3ccccc3n2C=C(c2ccccc2)N1c1ccc(Cl)cc1,> 77.7 µM,> 100 µM,> 77 µM,> 59.1 µM,> 93.1 µM,> 87.1 µM,> 100 µM,> 100 µM,20.6 µM,> 100 µM,49.2 µM,> 100 µM,19 µM,61.6 µM,> 100 µM
COc1ccc(Cc2cc(Cc3ccc(OC)cc3)cc(Cc3ccc(OC)cc3)c2)cc1,> 100 µM,,> 100 µM,> 100 µM,> 100 µM,> 100 µM,> 100 µM,> 100 µM,> 100 µM,> 100 µM,> 100 µM,> 100 µM,> 100 µM,> 100 µM,> 100 µM
CCO/C(O)=C(/C(=N)N1CCOCC1)C(=O)NC(C)C,> 100 µM,,> 100 µM,> 100 µM,> 100 µM,> 100 µM,> 100 µM,> 100 µM,> 100 µM,> 100 µM,> 100 µM,> 100 µM,> 100 µM,> 100 µM,> 100 µM
